According to patent US6239131A, “1,5 Benzodiazepine derivatives” (Zeria Pharmaceutical Co., Ltd., priority 1996, dated 2001):
Like-named read-outs stand apart in the source and are kept apart here.

Columns and labels:
CCK-A receptors = target: T1, CCK-A receptors (Cavia porcellus, UniProt Q63931); experiment: Measurement of Binding Affinity for CCK-A Receptors; parameters: species or system Hartley-strain guinea pig; settings: inhibition of specific [3H]L-364,718 (0.2 nM) binding; guinea pig pancreas; 25° C., 2 hours; pH 6.5
T1 construct: Pancreases were removed from Hartley-strain guinea pigs, the pancreases were homogenized; from tissue; host or cells: pancreas of Hartley-strain guinea pigs, crude membrane pellet
T1 sequence (Q63931 1-430): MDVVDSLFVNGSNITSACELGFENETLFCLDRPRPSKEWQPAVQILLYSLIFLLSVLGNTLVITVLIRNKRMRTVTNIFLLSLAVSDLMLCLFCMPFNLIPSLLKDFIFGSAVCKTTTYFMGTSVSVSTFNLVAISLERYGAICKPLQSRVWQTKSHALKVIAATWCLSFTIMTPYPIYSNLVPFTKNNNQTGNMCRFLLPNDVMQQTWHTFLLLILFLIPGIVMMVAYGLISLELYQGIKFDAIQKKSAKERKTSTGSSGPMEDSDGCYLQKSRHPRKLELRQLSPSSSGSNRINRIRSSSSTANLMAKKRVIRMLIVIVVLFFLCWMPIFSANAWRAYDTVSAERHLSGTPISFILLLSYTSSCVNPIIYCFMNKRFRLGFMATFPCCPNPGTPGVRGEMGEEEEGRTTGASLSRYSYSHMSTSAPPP
Protocol: Pancreases were removed from Hartley-strain guinea pigs, the pancreases were homogenized in 40 volumes of 10 mM PIPES buffer (pH 6.5, which hereinafter be abbreviated as "solvent") containing 1 mM EGTA, 30 mM MgCl2, 0.02% bacitracin, 0.02% soybean trypsin inhibitor and 0.3 M sucrose. The homogenate was filtrated through gauze and centrifuged at 50000×g for 10 minutes. Solvent was added to the pellet and recentrifuged as above. The final pellet thus obtained was homogenized in 40 volumes of solvent and used as the receptor preparation.
Binding assay was measured as follows. Fifty μl of [^3 H]L-364, 718 (at the final concentration of 0.2 nM) and 900 μl of the receptor preparation (50 μg protein/tube) were added to 50 μl of solvent, or L-364, 718 (1 μM) or a test compound. This mixture was incubated at 25° C. for 2 hours. After the reaction, the mixture was filtrated through Whatman GF/B filter presoaked in 0.1% BSA (bovine serum albumin). The filter was washed with 3 ml of ice-cold 10 mM PIPES buffer (pH 6.5) three times, immediately after the filtration. The filter was soaked in the ACS-II scintillation cocktail for one day and radioactivity was measured using a liquid scintillation counter. Non-specific binding was defined as the radioactivity in the presence of 1 μM L-364, 718. Specific binding was defined as the difference between total binding (used solvent without L-364, 718) and non-specific binding. lnhibitor dissociation constant (Ki) of each test compound was determined from the inhibition of specific [^3 H]L-364, 718 binding.

[1] = test system: pentagastrin-stimulated acid secretion; experiment: Measurement of Inhibition of Pentagastrin-stimulated Acid Secretion; format: in vivo, male Sprague-Dawley (SD)-strain rats; settings: intraduodenal, rat, acid output from 1 to 4 hours after administration, pentagastrin 15 μg/kg/hr
Protocol: Male Sprague-Dawley (SD)-strain rats were used. Each rat was operated to ligate the pylorus, and equip with a duodenal catheter and gastric fistula under a ether anesthesia. After the operation, each rat was placed in a Bollman-type cage and continuously infused pentagastrin (15 μg/kg/hr) through the tail vein. Test compounds were suspended in 0.5% aqueous sodium carboxymethylcellulose (which hereinafter be abbreviated as "vehicle"). Vehicle or test compound was administered through the intraduodenal catheter 1 hour after the beginning of pentagastrin infusion. Acidity of the collected gastric juice was measured by an automatic titillation device. Acid output was determined by multiplying the volume by the acidity of gastric juice. […] [formula]

CCK-B receptors = target: T2, CCK-B receptors (Cavia porcellus, UniProt H0VZC5); experiment: Measurement of Binding Affinity for CCK-B Receptors; parameters: species or system Hartley-strain guinea pig
T2 construct: Cerebral cortices were removed from Hartley-strain guinea pigs, the cerebral cortices were homogenized; from tissue; host or cells: cerebral cortex of Hartley-strain guinea pigs, crude membrane pellet
T2 sequence (H0VZC5 1-426): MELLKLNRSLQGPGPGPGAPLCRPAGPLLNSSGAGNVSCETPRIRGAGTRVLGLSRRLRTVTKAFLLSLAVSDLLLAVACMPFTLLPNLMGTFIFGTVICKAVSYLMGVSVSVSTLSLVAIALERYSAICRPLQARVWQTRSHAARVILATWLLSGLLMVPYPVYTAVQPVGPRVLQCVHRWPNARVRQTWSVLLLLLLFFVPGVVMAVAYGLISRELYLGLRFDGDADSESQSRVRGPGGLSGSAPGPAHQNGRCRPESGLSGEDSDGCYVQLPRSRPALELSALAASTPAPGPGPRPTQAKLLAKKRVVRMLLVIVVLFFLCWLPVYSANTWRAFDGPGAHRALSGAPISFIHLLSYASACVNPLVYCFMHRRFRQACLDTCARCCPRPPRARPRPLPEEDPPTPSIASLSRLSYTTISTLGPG
Protocol: Cerebral cortices were removed from Hartley-strain guinea pigs, the cerebral cortices were homogenized in 50 volumes of 50 mM Tris-HCl buffer (pH7.4) and centrifuged at 50000×g for 10 minutes. The Tris-HCl buffer was added to the pellet and recentrifuged as above two times. The final pellet was rehomogenized in 10 mM HEPES buffer (pH 6.5, which hereinafter be abbreviated as "solvent") containing 5 mM MgCl2, 1 mM EGTA, 0.25 mg/ml bacitracin and 130 mM NaCl, and used as the receptor preparation.
Binding assay was measured as follows. Fifty μl of [^3 H]CCK-8 (at the final concentration of 1.0 nM) and 900 μl of the receptor preparation (800 μg protein/tube) were added to 50 μl of either solvent, CCK-8 (1 μM) or a test compound. These ware reacted at 25° C. for 2 hours. After the reaction, the mixture was filtrated through Whatman GF/B filter presoaked in 0.1% BSA. The filter was washed with 3 ml of ice-cold 50 mM Tris-HCl buffer (pH 7.4) four times, immediately after the filtration. The filter was soaked in the ACS-II scintillation cocktail for a day and radioactivity was measured using a liquid scintillation counter. Non-specific binding was defined as the radioactivity in the presence of 1 μM CCK-8. Specific binding was defined as the difference between total binding (used solvent without CCK-8) and non-specific binding. Inhibitor dissociation constant (Ki) of each test compound was determined from the inhibition of specific [^3 H]CCK-8 binding.

[2] = inhibition of specific [3H]CCK-8 (1.0 nM) binding, guinea pig cerebral cortex, 25° C., 2 hours, pH 6.5, read-out: Ki (CCK-B receptors)

## CC(C)(C)C(=O)CN1C(=O)C(NC(=O)Nc2cccc(SCC(=O)O)c2)CN(c2ccccc2)c2ccccc21 (stereo not drawn) [Example 33, 3-[3-(1-tert-butylcarbonylmethyl-2-oxo-5-phenyl-1,3,4,5-tetrahydro-2H-1,5-benzodiazepin-3-yl)ureido]phenylthioacetic acid]
CCK-A receptors
  Ki: 0.244 µM
[1]
  inhibition in vivo at 3 mg/kg: 77.2%
CCK-B receptors; [2]
  Ki: 0.00014 µM

## Cc1ccc2c(c1)N(CC(=O)c1ccccc1C)C(=O)C(NC(=O)Nc1cccc(C(=O)O)c1)CN2C(=O)C1CCCC1 (stereo not drawn) [Example 87, 3-[3-[1-(2-toluoylmethyl)-2-oxo-5-cyclopentylcarbonyl-8-methyl-1,3,4,5-tetrahydro-2H-1,5-benzodiazepin-3-yl]ureido]benzoic acid]
CCK-A receptors
  Ki: 0.12 µM
[1]
  inhibition in vivo at 30 mg/kg: 80.1%
CCK-B receptors; [2]
  Ki: 0.00139 µM

## CC(C)(C)C(=O)CN1C(=O)C(NC(=O)Nc2cccc(C(=O)O)c2)CN(c2ccccc2F)c2ccccc21 (stereo not drawn) [Example 101, 3-[3-[1-tert-butylcarbonylmethyl-2-oxo-5-(2-fluorophenyl)-1,3,4,5-tetrahydro-2H-1,5-benzodiazepin-3-yl]ureido]benzoic acid]
CCK-A receptors
  Ki: 0.472 µM
[1]
  inhibition in vivo at 3 mg/kg: 78%
CCK-B receptors; [2]
  Ki: 0.00113 µM

## Cc1ccc2c(c1)N(CC(=O)c1ccccc1C)C(=O)C(NC(=O)Nc1cccc(C(=O)O)c1)CN2C(=O)c1cccs1 (stereo not drawn) [Example 104, 3-[3-[1-(2-toluoylmethyl)-2-oxo-5-(2-thenoyl)-8-methyl-1,3,4,5-tetrahydro-2H-1,5-benzodiazepin-3-yl]ureido]benzoic acid]
CCK-A receptors
  Ki: 0.13 µM
[1]
  inhibition in vivo at 1 mg/kg: 58%
CCK-B receptors; [2]
  Ki: 0.00059 µM

## Cc1ccc2c(c1)N(CC(=O)c1ccccc1C)C(=O)C(NC(=O)Nc1cccc(C(=O)O)c1)CN2C(=O)CC(C)(C)C (stereo not drawn) [Example 109, 3-[3-[1-(2-toluoylmethyl)-2-oxo-5-(3,3-dimethylbutanoyl)-8-methyl-1,3,4,5-tetrahydro-2H-1,5-benzodiazepin-3-yl]ureido]benzoic acid]
CCK-A receptors
  Ki: 0.346 µM
[1]
  inhibition in vivo at 1 mg/kg: 54%
CCK-B receptors; [2]
  Ki: 0.00181 µM

## Cc1ccc2c(c1)N(CC(=O)c1ccccc1C)C(=O)C(NC(=O)Nc1ccc(C)c(C(=O)O)c1)CN2C(=O)CC(C)(C)C (stereo not drawn) [Example 120, 5-[3-[1-(2-toluoylmethyl)-2-oxo-5-(3,3-dimethylbutanoyl)-8-methyl-1,3,4,5-tetrahydro-2H-1,5-benzodiazepin-3-yl]ureido]-2-methylbenzoic acid]
CCK-A receptors
  Ki: 0.506 µM
[1]
  inhibition in vivo at 30 mg/kg: 88.3%
CCK-B receptors; [2]
  Ki: 0.00075 µM

## Cc1cccc(NC(=O)N[C@@H]2N=C(c3ccccc3)c3ccccc3N(C)C2=O)c1 [L-365, 260, reference compound]
CCK-A receptors
  Ki: 0.00064 µM
[1]
  inhibition in vivo at 30 mg/kg: 46.5%
CCK-B receptors
  Ki: 0.0246 µM
